Target: T1, cyclooxygenase-1 (COX-1) (Homo sapiens, UniProt P23219)
T1 construct: gene PTGS1; human recombinant COX-1 stably overexpressed in HEK-293 cells
Assay: PGE2 production from added arachidonic acid in HEK-293 cells overexpressing human COX-1
Assay type: cell-based

T1 sequence (P23219 24-599): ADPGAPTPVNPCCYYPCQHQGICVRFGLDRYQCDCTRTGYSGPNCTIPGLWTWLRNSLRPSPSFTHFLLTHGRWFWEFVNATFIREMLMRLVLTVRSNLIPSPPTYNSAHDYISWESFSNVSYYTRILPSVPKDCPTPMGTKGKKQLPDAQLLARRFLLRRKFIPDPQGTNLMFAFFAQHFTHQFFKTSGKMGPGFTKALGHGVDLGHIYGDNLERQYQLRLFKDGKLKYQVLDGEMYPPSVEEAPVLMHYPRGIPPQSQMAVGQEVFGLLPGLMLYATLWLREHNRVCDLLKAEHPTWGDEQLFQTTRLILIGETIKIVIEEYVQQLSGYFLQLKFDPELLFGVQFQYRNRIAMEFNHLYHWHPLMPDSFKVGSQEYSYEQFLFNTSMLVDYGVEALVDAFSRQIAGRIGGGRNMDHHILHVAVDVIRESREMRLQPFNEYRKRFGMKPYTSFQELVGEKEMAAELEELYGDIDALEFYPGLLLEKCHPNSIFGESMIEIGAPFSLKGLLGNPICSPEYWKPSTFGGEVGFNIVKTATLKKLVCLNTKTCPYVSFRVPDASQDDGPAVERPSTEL

`Cc1cc(C(=O)O)c(C(F)(F)c2cccc(C(C)C)c2)cc1C` [A5, 2-(difluoro(3-isopropylphenyl)methyl)-4,5-dimethylbenzoic acid] was tested, and the IC50 was 5.2 µM.

Source: paper PMC6824041, “gem-Difluorobisarylic derivatives: design, synthesis and anti-inflammatory effect” (BMC Chemistry, 2019)
